Experimental data published in patent publication US20110039721A1, “METHOD FOR PREDICTION ABOUT CARCINOGENICITY OF SUBSTANCE IN RODENT” (Chemicals Evaluation and Research Institute, priority 2007, published 2011).

Legend:
[1] = classification of the substance (M+/M−); cited from earlier work
rodent = conditions: classification of the substance (C+/C−); cited from earlier work
[2] = test system: mRNA expressed from the genes (A) to (D) in rat liver; test: Behavior of genes (mRNA expression level, oligo-DNA microarray) in rat liver after 28-day oral administration; format: in vivo; conditions: mRNA vs vehicle control group; for Behavior of gene caused by administration of chemical substance, Gene No. 4846 / Behavior of gene caused by administration of chemical substance, Gene No. 2026 / Behavior of gene caused by administration of chemical substance, Gene No. 4218 / Behavior of gene caused by administration of chemical substance, Gene No. 6182 / Behavior of gene caused by administration of chemical substance, Gene No. 5600: gene group (A); for Behavior of gene caused by administration of chemical substance, Gene No. 4846: Unigene No. Rn.144554; for Behavior of gene caused by administration of chemical substance, Gene No. 2026 / Behavior of gene caused by administration of chemical substance, Gene No. 4218: Unigene No. Rn.167075; for Behavior of gene caused by administration of chemical substance, Gene No. 6182: Unigene No. Rn.5834; for Behavior of gene caused by administration of chemical substance, Gene No. 5600: Unigene No. Rn.9836; for Behavior of gene caused by administration of chemical substance, Gene No. 1494 / Behavior of gene caused by administration of chemical substance, Gene No. 2045 / Behavior of gene caused by administration of chemical substance, Gene No. 2203: gene group (B); for Behavior of gene caused by administration of chemical substance, Gene No. 1494: Unigene No. Rn.1430; for Behavior of gene caused by administration of chemical substance, Gene No. 2045: Unigene No. Rn.19329; for Behavior of gene caused by administration of chemical substance, Gene No. 2203: Unigene No. Rn.21240; for Behavior of gene caused by administration of chemical substance, Gene No. 533 / Behavior of gene caused by administration of chemical substance, Gene No. 725 / Behavior of gene caused by administration of chemical substance, Gene No. 1163 / Behavior of gene caused by administration of chemical substance, Gene No. 4973 / Behavior of gene caused by administration of chemical substance, Gene No. 4095 / Behavior of gene caused by administration of chemical substance, Gene No. 1334 / Behavior of gene caused by administration of chemical substance, Gene No. 6620 / Behavior of gene caused by administration of chemical substance, Gene No. 6303 / Behavior of gene caused by administration of chemical substance, Gene No. 5878 / Behavior of gene caused by administration of chemical substance, Gene No. 1131 / Behavior of gene caused by administration of chemical substance, Gene No. 1562 / Behavior of gene caused by administration of chemical substance, Gene No. 1741 / Behavior of gene caused by administration of chemical substance, Gene No. 893 / Behavior of gene caused by administration of chemical substance, Gene No. 6026 / Behavior of gene caused by administration of chemical substance, Gene No. 154 / Behavior of gene caused by administration of chemical substance, Gene No. 1993 / Behavior of gene caused by administration of chemical substance, Gene No. 813 / Behavior of gene caused by administration of chemical substance, Gene No. 2494 / Behavior of gene caused by administration of chemical substance, Gene No. 2546 / Behavior of gene caused by administration of chemical substance, Gene No. 3776 / Behavior of gene caused by administration of chemical substance, Gene No. 3929 / Behavior of gene caused by administration of chemical substance, Gene No. 1119 / Behavior of gene caused by administration of chemical substance, Gene No. 6742 / Behavior of gene caused by administration of chemical substance, Gene No. 5634: gene group (C); for Behavior of gene caused by administration of chemical substance, Gene No. 533: Unigene No. Rn.106184; for Behavior of gene caused by administration of chemical substance, Gene No. 725: Unigene No. Rn.108075; for Behavior of gene caused by administration of chemical substance, Gene No. 1163: Unigene No. Rn.11766; for Behavior of gene caused by administration of chemical substance, Gene No. 4973: Unigene No. Rn.118529; for Behavior of gene caused by administration of chemical substance, Gene No. 4095: Unigene No. Rn.119024; for Behavior of gene caused by administration of chemical substance, Gene No. 1334 / Behavior of gene caused by administration of chemical substance, Gene No. 6620: Unigene No. Rn.120914; for Behavior of gene caused by administration of chemical substance, Gene No. 6303: Unigene No. Rn.123063; for Behavior of gene caused by administration of chemical substance, Gene No. 5878: Unigene No. Rn.143213; for Behavior of gene caused by administration of chemical substance, Gene No. 1131: Unigene No. Rn.144946; for Behavior of gene caused by administration of chemical substance, Gene No. 1562: Unigene No. Rn.14744; for Behavior of gene caused by administration of chemical substance, Gene No. 1741: Unigene No. Rn.1647; for Behavior of gene caused by administration of chemical substance, Gene No. 893: Unigene No. Rn.164817; for Behavior of gene caused by administration of chemical substance, Gene No. 6026: Unigene No. Rn.167685; for Behavior of gene caused by administration of chemical substance, Gene No. 154: Unigene No. Rn.185941; for Behavior of gene caused by administration of chemical substance, Gene No. 1993: Unigene No. Rn.18728; for Behavior of gene caused by administration of chemical substance, Gene No. 813: Unigene No. Rn.201760; for Behavior of gene caused by administration of chemical substance, Gene No. 2494: Unigene No. Rn.23969; for Behavior of gene caused by administration of chemical substance, Gene No. 2546: Unigene No. Rn.24561; for Behavior of gene caused by administration of chemical substance, Gene No. 3776: Unigene No. Rn.43232; for Behavior of gene caused by administration of chemical substance, Gene No. 3929: Unigene No. Rn.4620; for Behavior of gene caused by administration of chemical substance, Gene No. 1119: Unigene No. Rn.9757; for Behavior of gene caused by administration of chemical substance, Gene No. 6742: Unigene No. Rn.9779; for Behavior of gene caused by administration of chemical substance, Gene No. 5634: Unigene No. Rn.9862; for Behavior of gene caused by administration of chemical substance, Gene No. 5726: gene group (D), Unigene No. Rn.9939
How it was run: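 Male F344 SPF rats, 5 weeks old, four per group, dosed by oral gavage once daily for 28 days with test chemical or matched-volume solvent. Liver total RNA profiled on oligo-DNA microarray. Change ≥1.5-fold or ≤1/1.5 versus vehicle counted as significant if its direction matched that seen with other carcinogens.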

liver = conditions: classification of the substance (Cr+/Cr−); cited from earlier work

SMILES | Mutagenicity by Ames test [1] | Carcinogenicity (rodent) | Behavior of gene caused by administration of chemical substance, Gene No. 4846 [2] | Behavior of gene caused by administration of chemical substance, Gene No. 2026 [2] | Behavior of gene caused by administration of chemical substance, Gene No. 4218 [2] | Behavior of gene caused by administration of chemical substance, Gene No. 6182 [2] | Behavior of gene caused by administration of chemical substance, Gene No. 5600 [2] | Behavior of gene caused by administration of chemical substance, Gene No. 1494 [2] | Behavior of gene caused by administration of chemical substance, Gene No. 2045 [2] | Behavior of gene caused by administration of chemical substance, Gene No. 2203 [2] | Behavior of gene caused by administration of chemical substance, Gene No. 533 [2] | Behavior of gene caused by administration of chemical substance, Gene No. 725 [2] | Behavior of gene caused by administration of chemical substance, Gene No. 1163 [2] | Behavior of gene caused by administration of chemical substance, Gene No. 4973 [2] | Behavior of gene caused by administration of chemical substance, Gene No. 4095 [2] | Behavior of gene caused by administration of chemical substance, Gene No. 1334 [2] | Behavior of gene caused by administration of chemical substance, Gene No. 6620 [2] | Behavior of gene caused by administration of chemical substance, Gene No. 6303 [2] | Behavior of gene caused by administration of chemical substance, Gene No. 5878 [2] | Behavior of gene caused by administration of chemical substance, Gene No. 1131 [2] | other results
CCSCCC(N)C(=O)O (racemic) [TS070, D,L-Ethionine] | M− | C+ | − | − | − | − | − | + | − | + | − | + | − | − | − | − | − | − | − | − | Behavior of gene caused by administration of chemical substance, Gene No. 1562 [2]: −; Behavior of gene caused by administration of chemical substance, Gene No. 1741 [2]: −; Behavior of gene caused by administration of chemical substance, Gene No. 893 [2]: −; Behavior of gene caused by administration of chemical substance, Gene No. 6026 [2]: −; Behavior of gene caused by administration of chemical substance, Gene No. 154 [2]: −; Behavior of gene caused by administration of chemical substance, Gene No. 1993 [2]: −; Behavior of gene caused by administration of chemical substance, Gene No. 813 [2]: −; Behavior of gene caused by administration of chemical substance, Gene No. 2494 [2]: −; Behavior of gene caused by administration of chemical substance, Gene No. 2546 [2]: −; Behavior of gene caused by administration of chemical substance, Gene No. 3776 [2]: −; Behavior of gene caused by administration of chemical substance, Gene No. 3929 [2]: −; Behavior of gene caused by administration of chemical substance, Gene No. 1119 [2]: −; Behavior of gene caused by administration of chemical substance, Gene No. 6742 [2]: −; Behavior of gene caused by administration of chemical substance, Gene No. 5634 [2]: −; Behavior of gene caused by administration of chemical substance, Gene No. 5726 [2]: −; Liver carcinogenicity (liver): Cr+
CCOC(=O)C(C)(C)Oc1ccc(Cl)cc1 [TS001, Clofibrate] | M− | C+ | − | + | − | + | − | + | + | + | + | + | + | + | + | − | − | − | − | − | Behavior of gene caused by administration of chemical substance, Gene No. 1562 [2]: −; Behavior of gene caused by administration of chemical substance, Gene No. 1741 [2]: −; Behavior of gene caused by administration of chemical substance, Gene No. 893 [2]: +; Behavior of gene caused by administration of chemical substance, Gene No. 6026 [2]: −; Behavior of gene caused by administration of chemical substance, Gene No. 154 [2]: −; Behavior of gene caused by administration of chemical substance, Gene No. 1993 [2]: −; Behavior of gene caused by administration of chemical substance, Gene No. 813 [2]: +; Behavior of gene caused by administration of chemical substance, Gene No. 2494 [2]: −; Behavior of gene caused by administration of chemical substance, Gene No. 2546 [2]: −; Behavior of gene caused by administration of chemical substance, Gene No. 3776 [2]: −; Behavior of gene caused by administration of chemical substance, Gene No. 3929 [2]: −; Behavior of gene caused by administration of chemical substance, Gene No. 1119 [2]: −; Behavior of gene caused by administration of chemical substance, Gene No. 6742 [2]: +; Behavior of gene caused by administration of chemical substance, Gene No. 5634 [2]: −; Behavior of gene caused by administration of chemical substance, Gene No. 5726 [2]: −; Liver carcinogenicity (liver): Cr+
